In one data set the test system is ERα/β. Conditions: read-out: Transactivation EC50, T47D-kBluc; ERE-luciferase; cells express ERα and ERβ; mean ± SEM (n). The protocol: (§1) Cells were incubated overnight with the various compounds and luciferase activity was then determined in cell lysates. Transactivation activity of the human mineralocorticoid receptor (MR) and peroxisome proliferator-activated receptors (PPAR-γ and PPAR-δ) used the fluorimetric Gene Blazer β-lactamase assay system (InVitrogen) following the manufacturer's instructions. Assays were conducted on 384-well plates using a fluorogenic substrate (CCF4-AM, InVitrogen).

In a further data set the target is T1, PPAR-δ (Homo sapiens, UniProt Q03181).
T1 sequence (Q03181 211-441 limits assumed): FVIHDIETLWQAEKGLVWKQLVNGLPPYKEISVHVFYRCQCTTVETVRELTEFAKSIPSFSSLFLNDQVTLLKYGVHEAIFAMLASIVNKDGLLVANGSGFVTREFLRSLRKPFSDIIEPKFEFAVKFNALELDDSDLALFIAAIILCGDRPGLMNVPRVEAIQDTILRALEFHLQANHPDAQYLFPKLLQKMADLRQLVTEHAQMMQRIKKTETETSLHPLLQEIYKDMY
The data set can be described thus: Gene Blazer β-lactamase transactivation assay, PPAR-δ. The class given is cell-based. The protocol:
as §1

Data set [1] concerns the target T2, human mineralocorticoid receptor (MR) (Homo sapiens, UniProt P08235).
T2 sequence (P08235 726-984 limits assumed): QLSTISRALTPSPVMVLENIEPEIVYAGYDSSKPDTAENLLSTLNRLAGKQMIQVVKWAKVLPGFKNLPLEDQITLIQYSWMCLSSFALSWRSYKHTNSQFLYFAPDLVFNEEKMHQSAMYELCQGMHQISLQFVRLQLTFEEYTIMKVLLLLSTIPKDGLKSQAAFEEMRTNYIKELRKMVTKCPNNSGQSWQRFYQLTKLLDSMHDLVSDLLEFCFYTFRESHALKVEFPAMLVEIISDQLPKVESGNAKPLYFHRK
The data set can be described thus: Gene Blazer β-lactamase transactivation assay, MR. Conditions: data not shown. The class given is cell-based. The protocol:
as §1

The target in a further data set is PPAR-γ (Homo sapiens, UniProt P37231). Conditions: data not shown. The protocol:
as §1

The test system of data set [2] is glucocorticoid receptor (GR). The following applies: data not shown. The procedure: as §1
For data set [3], the system named is LPS-induced shock in CD1 mice. Conditions: for Serum levels of TNFα: male CD-1 mice, LPS 0.5 mg. The protocol:
Six-week-old CD1 mice (Charles River, Calco, Italy) were kept under standard laboratory (nonspecific pathogen free) conditions at the University of Catania, School of Medicine, and were housed in a controlled environment and provided with standard rodent chow and water. Animal care and use was in compliance with all applicable regulations on protection of animals used for experimental and other scientific purposes.
To induce lethal endotoxemia, the mice were injected i.p. with 1 mg LPS (Sigma Chimica, Milan, Italy, code L6011, Lot K4096). […] In some studies (performed by Harbor Biosciences) male mice (n = 4 per group) were used and serum was taken 2 hours after LPS (0.5 mg) challenge, to measure levels of TNFα by ELISA.
All P-values of less than .05 were considered significant. For statistical analysis each group is compared to that of vehicle-treated control.

Data set [4] relates to PLP(139–151)-induced EAE in female SJL/J mice. An excerpt: Mice Female SJL/J mice (6 to 8 weeks of age; Charles River Italia, Udine, Italy) were maintained in a pathogen-free vivarium at the University of Catania, School of Medicine (Catania, Italy) receiving ad libitum sterilized food and water, and were adapted to the ambient environment for at least 7 days before the start of the study. Animal care and use was in compliance with all applicable regulations for the protection of animals used for experimental and other scientific purposes.
Disease symptoms were monitored daily and scored in a blinded manner using the following scale: 0: no illness, 1: flaccid tail, 2: moderate paraparesis, 3: severe paraparesis, 4: moribund state, 5: death. Mice were randomized to each experimental group before immunization to induce EAE. […] Statistical analysis of cumulative clinical scores was performed by ANOVA analysis for unpaired data. A P-value <.05 was considered to be statistically significant. For statistical analysis, the mice that succumbed to EAE were assigned 5 only for the day of death and then were deleted from the experimental group.

Data set [5] has as its system CAR-induced pleurisy in CD1 male mice. Conditions: 40 mg/kg suspension s.c. 24 h and 1 h before CAR, vs vehicle.
Data set [6] concerns PLP(139–151)-induced EAE in female SJL/J mice. Conditions: 40 mg/kg soluble formulation (cyclodextran) s.c. daily from onset.
Method: Mice Pathogen free female SJL/J mice (6–8 weeks old) were used for these studies.
The mice were assessed daily for clinical signs of EAE according to the following scale: 0: no signs; 1: limp tail or mild hind limb weakness; 2: moderate hind limb weakness or mild ataxia; 3: moderately severe hind limb weakness; 4: severe hind limb weakness or mild forearm weakness or moderate ataxia; 5: paraplegia with no more than moderate forelimb weakness; 6: paraplegia with severe forelimb weakness or severe ataxia or moribund condition.
The nature of a further data set: in vivo. Conditions: mouse.
For data set [7] the following is noted: humans, injection of 100–200 mg suspension formulation, for several weeks; ref Stickney et al., in preparation; cited from earlier work.
The mark [8] stands for this setting: soluble formulation (cyclodextran), Harbor Biosciences, unpublished observations.

pEC50: −log10 of the molar value. Where two headings read alike, the source gives them in different places.

As for `C[C@]12CCC(=O)C[C@@H]1CC[C@@H]1[C@@H]2CC[C@]2(C)[C@@H](O)CC[C@@H]12` [DHT, dihydrotestosterone], the pEC50 – broadly, −log10 of the EC50, conventionally taken in molar units – in the data set with ERα/β is […].

PPAR-γ, sequence (P37231 238-505 limits assumed): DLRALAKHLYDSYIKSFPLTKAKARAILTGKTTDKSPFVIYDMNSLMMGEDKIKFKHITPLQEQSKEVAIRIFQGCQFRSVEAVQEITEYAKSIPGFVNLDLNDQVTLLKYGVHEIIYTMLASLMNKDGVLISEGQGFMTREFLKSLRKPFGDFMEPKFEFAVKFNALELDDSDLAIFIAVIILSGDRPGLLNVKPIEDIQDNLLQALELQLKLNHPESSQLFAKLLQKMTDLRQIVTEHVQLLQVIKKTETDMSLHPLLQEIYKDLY

`CCCc1c(OCCCOc2ccc(OCC(=O)O)cc2)ccc(C(C)=O)c1O` [L165,041, reference compound] showed a pEC50 on PPAR-δ (reference compound) of 8.96.

With `C[C@]12CC[C@H]3[C@@H](CC=C4C[C@@H](O)CC[C@@]43C)[C@@H]1CC[C@@H]2O` [5-AED, androst-5-ene-3β,17β-diol], in [1], the “Transactivation of human mineralocorticoid receptor” value is listed as “does not transactivate”. Besides, the “Transactivation of PPAR-δ” value at PPAR-δ (data not shown) is on record as “does not transactivate”. For the same compound, the “Transactivation of PPAR-γ” value on PPAR-γ is on record as “does not transactivate”. Moreover, the “Transactivation of human glucocorticoid receptor” value in [2] is given as “does not transactivate”. Further, the “Serum levels of TNFα” value is reported as “not effective” in [3] (0.4 mg/kg s.c.); “not effective” in data set [3] (4.0 mg/kg s.c.); “significantly (P < .05) reduced” in data set [3] (40 mg/kg suspension s.c., vs vehicle, P < .05). Further, the Lethality is given as 100% in data set [3] (40 mg/kg s.c. given 4 hours after LPS, data not shown); 100% in [3] (40 mg/kg s.c. given 8 hours after LPS, data not shown); 100% in data set [3] (40 mg/kg s.c. given 24 hours after LPS, data not shown); 50% in data set [3] (40 mg/kg s.c. given 24 hours before LPS (1 mg i.p.), 72 h, vehicle 100%); “No lethality” in data set [4] (4 mg/kg suspension s.c.); “No lethality” in data set [4] (40 mg/kg suspension s.c.). In [4] (0.4 mg/kg suspension s.c., after day 17), the Mortality is 6/10. Moreover, the Cumulative disease score in data set [4] (0.4 mg/kg suspension s.c., surviving mice only) was 14.5 ± 3.7; in [4] (4 mg/kg suspension s.c. from Day 8 to Day 30, trend, vehicle 25.4 ± 9.3), 18.1 ± 9.9; in [4] (40 mg/kg suspension s.c. from Day 8 to Day 30, vehicle 25.4 ± 9.3), 14.4 ± 9.1. In addition, the “Incidence of EAE” value in data set [4] (all groups (0.4, 4.0, 40 mg/kg)) was determined as 100%. In [4] (suspension s.c.), this compound registered a Minimally effective dose of 4 to 40 mg/kg. Also, the “IL-6 level in pleural rinse” value in data set [5] (at 4 and 5 hours) was “significantly reduced”. The “TNFα level in pleural rinse” value in [5] (at 4 hours) is recorded as “significantly reduced”. Besides, the “EAE clinical score vs vehicle” value in [6] is “no significant differences”. Further, the “Time to Cmax” value is listed as “within one hour” (40 mg/kg as suspension, mice) and “within minutes” under setting [8]. In addition, the “Time to complete clearance” value under setting [8] lay in the range of 8 to 12 h. Moreover, the results for the Cmax in the data set “in vivo” and in the data set “in vivo” (40 mg/kg) were < 5000 ng/mL and ~100 ng/mL, respectively. Also, in the data set “in vivo” (40 mg/kg), the concentration at 96 h was ~10 ng/mL. The “Sustained serum levels of 5-AED” value in data set [7] is ~ 30 ng/mL.

The values are drawn from PMC3005896 (Autoimmune Diseases, 2010).
